Values quoted from earlier work, collected in patent US10227355B2, “Quinoline derivatives and preparation thereof” (COUNCIL OF SCIENTIFIC AND INDUSTRIAL RESEARCH, priority 2015, dated 2019).

System: Plasmodium cynomolgi B
Conditions: intramuscularly, 7 daily doses of 15 mg/kg; observation period of 120 d; rhesus monkeys

SMILES	anti-relapse (curative) activity
CCCCCCCCCCOc1cc2c(OC(C)=O)c(C(=O)OC)cnc2cc1OC(C)C [WR 194905, 4-acetoxy-6-decyloxy-7-isopropoxy-3-methoxycarbonylquinoline]	curative
CCCCc1cc2c(O)c(C(=O)OC)cnc2cc1OCCOc1ccccc1 [WR 197236, 6-butyl-4-hydroxy-3-methoxycarbonyl-7-β-phenoxyethoxyquinoline]	curative
